Results taken from patent publication US11154519B2, “Inhibitors and their uses” (MEDICAL RESEARCH COUNCIL, priority 2015, dated 2021).

How the values were obtained:
[1] = test system: protein synthesis; assay: Assessment of translation rates (35S-methionine labelling); format: cell-based
Outline: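 Plated at 90,000 cells/ml and treated, cells were pulse-labelled 10 min at 37° C. with 100 μCi/ml 35S-methionine, then lysed in Laemmli buffer. Lysates resolved on 4-12% Bis-Tris gels; incorporation quantified by phosphorimaging and ImageJ.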

[2] = target: T1, PPP1R15B-PP1 (Homo sapiens, UniProt Q5SWA1); assay: SPR steady-state binding to R15B-PP1 holophosphatase; details: SPR steady-state, MBP-R15B340-698-His captured on bio-PP1c, 10° C.; read-out: R15B (KD)
T1 construct: cDNAs encoding amino acids 325-636 of PPP1R15A and 340-698 of PPP1R15B were His-tagged and cloned into pMAL-c5x; made in house; host or cells: R15B: E. coli BL21-Gold (pMAL-c5x); PP1γ: Sf9 insect cells (baculovirus, pDW464)

[3] = test system: R15A or R15B; assay: Selective binding towards R15A or R15B (based on SPR); design: species or system human

T1 sequence (Q5SWA1 340-698): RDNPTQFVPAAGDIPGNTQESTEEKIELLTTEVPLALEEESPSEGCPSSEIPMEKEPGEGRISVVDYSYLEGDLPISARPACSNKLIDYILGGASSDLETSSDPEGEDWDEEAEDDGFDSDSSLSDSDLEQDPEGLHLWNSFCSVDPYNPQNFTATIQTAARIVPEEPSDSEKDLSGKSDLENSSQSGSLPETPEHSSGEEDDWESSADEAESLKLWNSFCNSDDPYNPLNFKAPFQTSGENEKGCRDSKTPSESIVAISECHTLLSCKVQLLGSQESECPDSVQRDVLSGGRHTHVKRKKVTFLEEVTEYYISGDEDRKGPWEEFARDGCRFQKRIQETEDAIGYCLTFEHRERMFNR
T1 sequence (P36873 whole entry partner, the tested form may be a part): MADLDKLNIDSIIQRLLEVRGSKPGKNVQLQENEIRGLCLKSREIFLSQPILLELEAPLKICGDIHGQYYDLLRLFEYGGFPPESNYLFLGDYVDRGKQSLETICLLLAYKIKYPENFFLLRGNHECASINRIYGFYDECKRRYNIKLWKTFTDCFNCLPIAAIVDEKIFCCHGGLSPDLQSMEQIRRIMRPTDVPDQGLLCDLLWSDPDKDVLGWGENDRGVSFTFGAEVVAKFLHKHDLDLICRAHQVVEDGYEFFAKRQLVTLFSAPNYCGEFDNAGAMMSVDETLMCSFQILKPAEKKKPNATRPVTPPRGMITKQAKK

Structure (SMILES) | Effect on translation ([1]; 35S-methionine labelling of cells) | Kd [2] | Selective binding towards R15A or R15B (based on SPR) [3] | Effect on translation ⇒ Inhibits ([1]; target(s) concluded to be inhibited)
[H]/N=C(\N)NN=Cc1c(Cl)ccc(Cl)c1Cl [Compound 31, (E)-2-(2,3,6-trichlorobenzylidene)hydrazine-1-carboximidamide] | No | 14.3 ± 0.7 µM | R15AB (A PPP1R15A and PPP1R15B inhibitor may be defined as a compound where the difference in KD values between R15A and R15B is no more than about 3 fold) | –
[H]/N=C(\N)NN=Cc1cc(Cl)cc(Cl)c1 [Compound 34, (E)-2-(3,5-dichlorobenzylidene)hydrazine-1-carboximidamide] | – | 31.3 ± 2 µM | R15AB (A PPP1R15A and PPP1R15B inhibitor may be defined as a compound where the difference in KD values between R15A and R15B is no more than about 3 fold) | R15AB
